# Experimental data taken from patent US7446102B2, “Antibacterial amide macrocycles IV” (priority 2004, dated 2008).
# Structures can show the parent of a compound that is named as a salt.
# Assays:
# S. aureus RN4220Bi^R = assay: MIC on biphenomycin-resistant S. aureus RN4220Bi^R; format: cell-based; details: Staphylococcus aureus, read-out: MIC, selected colony (strain RN4220Bi^R)
# Method: The S. aureus strain RN4220Bi^R is isolated in vitro. For this purpose, 100 μl portions of an S. aureus RN4220 cell suspension (about 1.2×10^8 cfu/ml) are plated out on an antibiotics-free agar plate (18.5 mM Na2HPO4, 5.7 mM KH2PO4, 9.3 mM NH4Cl, 2.8 mM MgSO4, 17.1 mM NaCl, 0.033 μg/ml thiamine hydrochloride, 1.2 μg/ml nicotinic acid, 0.003 μg/ml biotin, 1% glucose, 25 μg/ml of each proteinogenic amino acid with the addition of 0.4% BH broth and 1% agarose) and on an agar plate containing 2 μg/ml biphenomycin B (10×MIC), and incubated at 37° C. overnight. Whereas about 1×10^7 cells grow on the antibiotics-free plate, about 100 colonies grow on the antibiotics-containing plate, corresponding to a resistance rate of 1×10^−5. Some of the colonies grown on the antibiotics-containing plate are tested for the biphenomycin B MIC. One colony with an MIC of >50 μM is selected for further use, and the strain is referred to as RN4220Bi^R.
# [1] = molecular target: S. aureus 133 translation; assay: S. aureus in vitro transcription-translation assay (firefly luciferase, S30 extract); format: biochemical; details: 50% inhibition of the translation of firefly luciferase
# Text: In Vitro Transcription-Translation with S. aureus Extracts
# Construction of an S. aureus Luciferase Reporter Plasmid
# For the construction of a reporter plasmid which can be used in an in vitro transcription-translation assay from S. aureus the plasmid pBESTluc (Promega Corporation, USA) is used. The E. coli tac promoter present in this plasmid in front of the firefly luciferase is replaced by the capA1 promoter with appropriate Shine-Dalgarno sequence from S. aureus. The primers CAPFor 5′-[…] […] […]-3′ and CAPRev 5′-[…]-3′ are used for this. The primer CAPFor contains the capA1 promoter, the ribosome binding site and the 5′ region of the luciferase gene. After PCR using pBESTluc as template it is possible to isolate a PCR product which contains the firefly luciferase gene with the fused capA1 promoter. This is, after restriction with ClaI and HindIII, ligated into the vector pBESTluc which has likewise been digested with ClaI and HindIII. The resulting plasmid p1a is able to replicate in E. coli and be used as template in the S. aureus in vitro transcription-translation assay.
# Preparation of S30 Extracts from S. aureus
# Six liters of BHI medium are inoculated with a 250 ml overnight culture of an S. aureus strain and allowed to grow at 37° C. until the OD600 nm is 2-4. The cells are harvested by centrifugation and washed in 500 ml of cold buffer A (10 mM Tris acetate, pH 8.0, 14 mM magnesium acetate, 1 mM DTT, 1 M KCl). After renewed centrifugation, the cells are washed in 250 ml of cold buffer A with 50 mM KCl, and the resulting pellets are frozen at −20° C. for 60 min. The pellets are thawed on ice in 30 to 60 min and taken up in buffer B (10 mM Tris acetate, pH 8.0, 20 mM magnesium acetate, 1 mM DTT, 50 mM KCl) up to a total volume of 99 ml. 1.5 ml portions of lysostaphin (0.8 mg/ml) in buffer B are introduced into 3 precooled centrifuge cups and each is mixed with 33 ml of the cell suspension. The samples are incubated at 37° C., shaking occasionally, for 45 to 60 min, before 150 μl of a 0.5 M DTT solution are added. The lysed cells are centrifuged at 30 000×g and 4° C. for 30 min. The cell pellet is taken up in buffer B and then centrifuged again under the same conditions, and the collected supernatants are combined. The supernatants are centrifuged again under the same conditions, and 0.25 volumes of buffer C (670 mM Tris acetate, pH 8.0, 20 mM magnesium acetate, 7 mM Na3 phosphoenolpyruvate, 7 mM DTT, 5.5 mM ATP, 70 μM amino acids (complete from Promega), 75 μg of pyruvate kinase (Sigma, Germany))/ml are added to the upper ⅔ of the supernatant. The samples are incubated at 37° C. for 30 min. The supernatants are dialysed against 21 of dialysis buffer (10 mM Tris acetate, pH 8.0, 14 mM magnesium acetate, 1 mM DTT, 60 mM potassium acetate) in a dialysis tube with a 3500 Da cut-off with one buffer change at 4° C. overnight. The dialysate is concentrated to a protein concentration of about 10 mg/ml by covering the dialysis tube with cold PEG 8000 powder (Sigma, Germany) at 4° C. The S30 extracts can be stored in aliquots at −70° C.
# Determination of the IC50 in the S. aureus In Vitro Transcription-Translation Assay
# Inhibition of protein biosynthesis of the compounds can be shown in an in vitro transcription-translation assay. The assay is based on the cell-free transcription and translation of firefly luciferase using the reporter plasmid p1a as template and cell-free S30 extracts obtained from S. aureus. The activity of the resulting luciferase can be detected by luminescence measurement.
# The amount of S30 extract or plasmid p1a respectively to be employed must be tested anew for each preparation in order to ensure an optimal concentration in the assay. 3 μl of the substance to be tested, dissolved in 5% DMSO, are introduced into an MTP. Then 10 μl of a suitably concentrated plasmid solution p1a are added. […]
smiles,measurement,setting,value
"NC[C@H](O)C[C@@H]1NC(=O)[C@@H](N)Cc2cc(ccc2O)-c2ccc(O)c(c2)C[C@@H](C(=O)O)NC1=O [Example 20A, 14(S)-Amino-11(S)-(3-amino-2(R)-hydroxypropyl)-5,17-dihydroxy-10,13-dioxo-9,12-diazatricyclo[14.3.1.1^2,6]henicosa-1(19),2,4,6(21),16(20),17-hexaene-8(S)-carboxylic acid dihydrochloride, reference compound]",MIC,S. aureus RN4220Bi^R,> 50 µM
same,IC50,[1],1500 nM
